Data as given in ChEMBL document CHEMBL1201862, “PubChem BioAssay data set” (2004).
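Step 1: Grow cells in 96-well plates. Step 2: Expose to compound for 48 hours at 5 concentrations. Step 3: Interpolate endpoints linearly; if unreached, use highest concentration. Abbreviation: GI50, concentration required for 50% inhibition of growth.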 Calls of active or inactive are those of the source. Rule as the data show it: active = GI50 up to about 1.1 µM and inactive = higher.

Columns and labels:
Experiment in all cases: NCI-60 cell line screen, 48 h
[1] = system: 786-0
[2] = system: ACHN
[3] = system: DU-145
[4] = system: EKVX
[5] = system: HL-60
[6] = system: HOP-62
[7] = system: HOP-92
[8] = system: K562
[9] = system: M14
[10] = system: MDA-MB-231
[11] = system: MDA-N
[12] = system: MOLT-4
[13] = system: NCI-H522
[14] = system: RXF 393
[15] = system: SK-OV-3
[16] = system: SNB-75
[17] = system: SW-620
[18] = system: TK-10
[19] = system: U-251
[20] = system: UO-31

Compound	GI50 [1]	GI50 [2]	GI50 [3]	GI50 [4]	GI50 [5]	GI50 [6]	GI50 [7]	GI50 [8]	GI50 [9]	GI50 [10]	GI50 [11]	GI50 [12]	GI50 [13]	GI50 [14]	GI50 [15]	GI50 [16]	GI50 [17]	GI50 [18]	GI50 [19]	GI50 [20]
CCOC(=O)c1c(N=P(c2ccccc2)(c2ccccc2)c2ccccc2)nnc(-c2ccccc2)c1-c1ccccc1	> 100 µM (inactive)	> 100 µM (inactive)	> 100 µM (inactive)	> 100 µM (inactive)	> 100 µM (inactive)	> 100 µM (inactive)	5.52 µM (inactive)	> 100 µM (inactive)	> 100 µM (inactive)	> 100 µM (inactive)	92.5 µM (inactive)	> 100 µM (inactive)	> 100 µM (inactive)	61.1 µM (inactive)	> 100 µM (inactive)	6.68 µM (inactive)	> 100 µM (inactive)	> 100 µM (inactive)	> 100 µM (inactive)	1.66 µM (inactive)
CC(C)C1CC(CO)(CNc2nc(N)nc(Cl)c2C=O)C1 (stereo not given)	31.3 µM (inactive)	5.35 µM (inactive)	14.6 µM (inactive)	4.51 µM (inactive)	1.57 µM (inactive)	18.8 µM (inactive)	2.28 µM (inactive)	2.56 µM (inactive)	1.77 µM (inactive)	2.45 µM (inactive)	2.85 µM (inactive)	2.15 µM (inactive)	0.604 µM (active)	7.93 µM (inactive)	6.79 µM (inactive)	7.87 µM (inactive)	6.15 µM (inactive)	> 66.8 µM (inactive)	3.35 µM (inactive)	6.27 µM (inactive)
NC(=S)NN=Cc1ccccc1OCc1cccc(COc2ccccc2C=NNC(N)=S)n1	12.4 µM (inactive)	20.6 µM (inactive)	13.7 µM (inactive)	10 µM (inactive)	> 100 µM (inactive)	6.56 µM (inactive)	3.72 µM (inactive)	> 100 µM (inactive)	> 100 µM (inactive)	6.92 µM (inactive)	> 100 µM (inactive)	> 100 µM (inactive)	> 64.9 µM (inactive)	2.4 µM (inactive)	9.89 µM (inactive)	1.78 µM (inactive)	> 96.4 µM (inactive)	14.4 µM (inactive)	4.55 µM (inactive)	28.2 µM (inactive)
CC(=O)O[C@H]1CC[C@@]2(C)C(=CC[C@@H]3[C@@H]2CC[C@]2(C)C(=N/O)/C(=C\c4ccccc4)C[C@@H]32)C1	13.9 µM (inactive)	23.6 µM (inactive)	23.4 µM (inactive)	4.86 µM (inactive)	14.5 µM (inactive)	16.7 µM (inactive)	41.1 µM (inactive)	31.2 µM (inactive)	4.9 µM (inactive)	20.5 µM (inactive)	4.71 µM (inactive)	3.08 µM (inactive)	3.53 µM (inactive)	9.48 µM (inactive)	28.9 µM (inactive)	33.6 µM (inactive)	20.9 µM (inactive)	24.2 µM (inactive)	24.9 µM (inactive)	9.06 µM (inactive)
Oc1ccccc1/C=N/N1C(=S)N(c2ccccc2)C(=N\c2ccccc2)/C1=N/c1ccccc1	2.72 µM (inactive)	2.41 µM (inactive)	16.9 µM (inactive)	14.9 µM (inactive)	30 µM (inactive)	9.35 µM (inactive)	4.57 µM (inactive)	28.6 µM (inactive)	15.1 µM (inactive)	10 µM (inactive)	18.5 µM (inactive)	> 33.3 µM (inactive)	3.89 µM (inactive)	5.41 µM (inactive)	13.9 µM (inactive)	3.21 µM (inactive)	22.3 µM (inactive)	8.28 µM (inactive)	2.79 µM (inactive)	14 µM (inactive)
COc1ccc(-c2c(CN3CCOCC3)sc3nc4ccccc4n23)cc1	17.2 µM (inactive)	36.6 µM (inactive)	28.2 µM (inactive)	15.2 µM (inactive)	9.42 µM (inactive)	31 µM (inactive)	23.1 µM (inactive)	3.31 µM (inactive)	7.53 µM (inactive)	23 µM (inactive)	2.06 µM (inactive)	10.3 µM (inactive)	2.58 µM (inactive)	8.55 µM (inactive)	21.6 µM (inactive)	14.3 µM (inactive)	12.2 µM (inactive)	58.6 µM (inactive)	16.1 µM (inactive)	30.3 µM (inactive)
O=C(c1cc2ccccc2[nH]1)N1C2CCC1CN(CCOC(c1ccc(F)cc1)c1ccc(F)cc1)CC2 (stereo not given)	> 100 µM (inactive)	95.1 µM (inactive)	> 100 µM (inactive)	8.55 µM (inactive)	6.85 µM (inactive)	> 100 µM (inactive)	> 100 µM (inactive)	5.15 µM (inactive)	> 100 µM (inactive)	9.2 µM (inactive)	> 100 µM (inactive)	4.91 µM (inactive)	18.1 µM (inactive)	3.97 µM (inactive)	> 100 µM (inactive)	> 100 µM (inactive)	> 100 µM (inactive)	> 100 µM (inactive)	3.99 µM (inactive)	3.22 µM (inactive)
